Reference: patent publication US10941158B2, “Pyrazole ACC inhibitors and uses thereof” (Gilead Apollo, LLC, priority 2015, dated 2021)
In brackets after ≈: the same amount, converted by molar mass. Like-named read-outs stand apart in the source and are kept apart here.

Legend:
[1] = target: human (hACC2) ACC2 (Homo sapiens, UniProt O00763); experiment: In vitro Acetyl-CoA Carboxylase (ACC) inhibition assay (ADP-Glo), hACC2; type: biochemical
Experimental: The detailed procedure is as follows. […] 10 μL ADP glo reagent was added. […] 20 μL kinase detection reagent was added.
“NA” stands for “not assayed.”

[2] = test system: C. albicans ATCC 90028; experiment: Anti-Fungal (Candida) Activity Assay, broth microtiter MIC; type: cell-based; settings: read-out: MIC C. albicans ATCC 90028
Experimental: (§1) Compounds of the present invention were evaluated in an Anti-Fungal Activity Assay. An exemplary procedure for the assay, which measures the susceptibility of various Candida species to anti-fungal compounds, follows. Compounds to be tested (including fluconazole and amphotericin B) were dissolved in DMSO to obtain a solution having a concentration of 1 mg/mL. […] All species were grown from frozen stock by directly plating on to freshly prepared Sabouraud Dextrose agar (BD, Difco) and incubated overnight in ambient air at 35° C. for 24 h. A direct suspension was prepared in RPMI 1640+MOPS (Lonza, Biowhittaker) by taking individual colonies from the overnight cultures using sterile swabs soaked in sterile saline. The concentration of the suspension was determined using pre-determined standard curves. […] Broth microtiter MIC challenge plates were prepared following CLSI guidelines (M27-A3, Vol. 28 No. 14). The original CLSI guidelines focused on reading Candida MICs after 48 h of incubation. As reading after only 24 h offers a clear advantage of patient care, QC limits are being established for all drugs at 24 h. That being said there are no known interpretive breakpoints for amphotericin B at 24 h and the current fluconazole interpretive breakpoints are based on a 48 h reading. The MIC for the test compounds were recorded at 48 h. All MIC determinations were achieved by visually comparing the growth found in the antibiotic challenged wells to that of the growth control.

[3] = test system: C. krusei ATCC 6258; experiment: as above; type: cell-based; settings: Pichia kudriavzevii, read-out: MIC C. krusei ATCC 6258
Experimental: as §1

[4] = test system: C. parapsilosis ATCC 22019; experiment: as above; type: cell-based; settings: Lodderomyces parapsilosis, read-out: MIC C. parapsilosis ATCC 22019
Experimental: as §1

[5] = test system: Botrtyis cinerea (Bc); experiment: Growth inhibition assay of fungal pathogens; type: cell-based; settings: 48 h, read-out: Concentration at 90% Inhibition Bc
Experimental: (§2) Compounds of the present invention were evaluated in a growth inhibition assay to determine the ability to control the growth of fungal pathogens, such as Botrtyis cinerea (Bc), Collectotrichum graminicola (Cg). Diplodia maydis (Dm), Fusarium moniliforme (Fm), Fusarium virguliforme (Fv), Phytophthora capsici (Pc), Rhizoctonia solani (Rs), and Septoria tritici (St). Compounds to be tested were dissolved in DMSO at 2.5 mg/ml to produce compound stock solutions (“stocks”). Stocks were diluted with DMSO by a five-fold dilution in a 96-well stock plate, and two sets of final concentrations of 50, 10, and 2 ppm or 2, 0.4, and 0.08 ppm were obtained in vitro. A set of positive controls was also prepared, with various concentrations of Soraphen (2, 0.4, and 0.08 ppm), Metalaxyl (1.1, 0.22, and 0.04 ppm), and Metconazole (2, 0.4, and 0.08 ppm or 0.2, 0.04, and 0.008 ppm) after the five-fold dilutions. Negative controls on each plate included 2% DMSO, water, and a blank (media+2% DMSO). Fungal spores were isolated from previously sub-cultured plates of Botrtyis cinerea (Bc). Collectotrichum graminicola (Cg). Diplodia maydis (Dm), Fusarium moniliforme (Fm), Fusarium virguliforme (Fv), Phytophthora capsici (Pc), and Septoria tritici (St). The isolated spores were diluted to individual concentrations with a 17% V8 liquid media. For Rhizoctonia solani (Rs) and Pythium irregulare, 1.5 mm mycelial plugs were used in place of spores and ¼ Potato Dextrose Broth (PDB) was used for dilution. The spore concentrations and plug sizes were based on growth curves generated at 48 hours for each pathogen. In a second 96-well plate, the spores or mycelial plugs, media, diluted compound solutions, and controls were combined. Once the compound was added, a true final concentration of compound in each well was measured by an OD600 reading, which adjusted for any compound precipitation that might have occurred in the well. Plate readings were repeated at both 24 and 48 hours. The blank negative control was used as a background subtraction. Additional visual ratings were performed at both 24 and 48 hours for checking on precipitation and confirming efficacy. Visual and OD600 ratings of the compounds at 48 hours were compared to the 2% DMSO negative control, and the percent of pathogen growth inhibition was determined based on those values.

[6] = test system: Collectotrichum graminicola (Cg); experiment: Growth inhibition assay of fungal pathogens; type: cell-based; settings: 48 h, read-out: Concentration at 90% Inhibition Cg
Experimental: as §2

[7] = test system: Diplodia maydis (Dm); experiment: Growth inhibition assay of fungal pathogens; type: cell-based; settings: Stenocarpella maydis, 48 h, read-out: Concentration at 90% Inhibition Dm
Experimental: as §2

[8] = test system: Fusarium moniliforme (Fm); experiment: Growth inhibition assay of fungal pathogens; type: cell-based; settings: for IC90: Fusarium verticillioides, 48 h, read-out: Concentration at 90% Inhibition Fm
Experimental: as §2

[9] = test system: Fusarium virguliforme (Fv); experiment: Growth inhibition assay of fungal pathogens; type: cell-based; settings: 48 h
Experimental: as §2

[10] = test system: Phytophthora capsici (Pc); experiment: Growth inhibition assay of fungal pathogens; type: cell-based; settings: for IC90: Phytophthora capsici, read-out: Concentration at 90% Inhibition Pc
Experimental: as §2

[11] = test system: Rhizoctonia solani (Rs); experiment: Growth inhibition assay of fungal pathogens; type: cell-based; settings: 48 h, read-out: Concentration at 90% Inhibition Rs
Experimental: as §2

[12] = test system: Septoria tritici (St); experiment: Growth inhibition assay of fungal pathogens; type: cell-based; settings: for IC90: Zymoseptoria tritici, read-out: Concentration at 90% Inhibition St
Experimental: as §2

[13] = read-out: Concentration at 90% Inhibition Fv, Table 4a, 48 hours
[14] = read-out: Concentration at 90% Inhibition Fv, Table 4b, 48 hours

Sequence of human (hACC2) ACC2 (O00763 whole entry): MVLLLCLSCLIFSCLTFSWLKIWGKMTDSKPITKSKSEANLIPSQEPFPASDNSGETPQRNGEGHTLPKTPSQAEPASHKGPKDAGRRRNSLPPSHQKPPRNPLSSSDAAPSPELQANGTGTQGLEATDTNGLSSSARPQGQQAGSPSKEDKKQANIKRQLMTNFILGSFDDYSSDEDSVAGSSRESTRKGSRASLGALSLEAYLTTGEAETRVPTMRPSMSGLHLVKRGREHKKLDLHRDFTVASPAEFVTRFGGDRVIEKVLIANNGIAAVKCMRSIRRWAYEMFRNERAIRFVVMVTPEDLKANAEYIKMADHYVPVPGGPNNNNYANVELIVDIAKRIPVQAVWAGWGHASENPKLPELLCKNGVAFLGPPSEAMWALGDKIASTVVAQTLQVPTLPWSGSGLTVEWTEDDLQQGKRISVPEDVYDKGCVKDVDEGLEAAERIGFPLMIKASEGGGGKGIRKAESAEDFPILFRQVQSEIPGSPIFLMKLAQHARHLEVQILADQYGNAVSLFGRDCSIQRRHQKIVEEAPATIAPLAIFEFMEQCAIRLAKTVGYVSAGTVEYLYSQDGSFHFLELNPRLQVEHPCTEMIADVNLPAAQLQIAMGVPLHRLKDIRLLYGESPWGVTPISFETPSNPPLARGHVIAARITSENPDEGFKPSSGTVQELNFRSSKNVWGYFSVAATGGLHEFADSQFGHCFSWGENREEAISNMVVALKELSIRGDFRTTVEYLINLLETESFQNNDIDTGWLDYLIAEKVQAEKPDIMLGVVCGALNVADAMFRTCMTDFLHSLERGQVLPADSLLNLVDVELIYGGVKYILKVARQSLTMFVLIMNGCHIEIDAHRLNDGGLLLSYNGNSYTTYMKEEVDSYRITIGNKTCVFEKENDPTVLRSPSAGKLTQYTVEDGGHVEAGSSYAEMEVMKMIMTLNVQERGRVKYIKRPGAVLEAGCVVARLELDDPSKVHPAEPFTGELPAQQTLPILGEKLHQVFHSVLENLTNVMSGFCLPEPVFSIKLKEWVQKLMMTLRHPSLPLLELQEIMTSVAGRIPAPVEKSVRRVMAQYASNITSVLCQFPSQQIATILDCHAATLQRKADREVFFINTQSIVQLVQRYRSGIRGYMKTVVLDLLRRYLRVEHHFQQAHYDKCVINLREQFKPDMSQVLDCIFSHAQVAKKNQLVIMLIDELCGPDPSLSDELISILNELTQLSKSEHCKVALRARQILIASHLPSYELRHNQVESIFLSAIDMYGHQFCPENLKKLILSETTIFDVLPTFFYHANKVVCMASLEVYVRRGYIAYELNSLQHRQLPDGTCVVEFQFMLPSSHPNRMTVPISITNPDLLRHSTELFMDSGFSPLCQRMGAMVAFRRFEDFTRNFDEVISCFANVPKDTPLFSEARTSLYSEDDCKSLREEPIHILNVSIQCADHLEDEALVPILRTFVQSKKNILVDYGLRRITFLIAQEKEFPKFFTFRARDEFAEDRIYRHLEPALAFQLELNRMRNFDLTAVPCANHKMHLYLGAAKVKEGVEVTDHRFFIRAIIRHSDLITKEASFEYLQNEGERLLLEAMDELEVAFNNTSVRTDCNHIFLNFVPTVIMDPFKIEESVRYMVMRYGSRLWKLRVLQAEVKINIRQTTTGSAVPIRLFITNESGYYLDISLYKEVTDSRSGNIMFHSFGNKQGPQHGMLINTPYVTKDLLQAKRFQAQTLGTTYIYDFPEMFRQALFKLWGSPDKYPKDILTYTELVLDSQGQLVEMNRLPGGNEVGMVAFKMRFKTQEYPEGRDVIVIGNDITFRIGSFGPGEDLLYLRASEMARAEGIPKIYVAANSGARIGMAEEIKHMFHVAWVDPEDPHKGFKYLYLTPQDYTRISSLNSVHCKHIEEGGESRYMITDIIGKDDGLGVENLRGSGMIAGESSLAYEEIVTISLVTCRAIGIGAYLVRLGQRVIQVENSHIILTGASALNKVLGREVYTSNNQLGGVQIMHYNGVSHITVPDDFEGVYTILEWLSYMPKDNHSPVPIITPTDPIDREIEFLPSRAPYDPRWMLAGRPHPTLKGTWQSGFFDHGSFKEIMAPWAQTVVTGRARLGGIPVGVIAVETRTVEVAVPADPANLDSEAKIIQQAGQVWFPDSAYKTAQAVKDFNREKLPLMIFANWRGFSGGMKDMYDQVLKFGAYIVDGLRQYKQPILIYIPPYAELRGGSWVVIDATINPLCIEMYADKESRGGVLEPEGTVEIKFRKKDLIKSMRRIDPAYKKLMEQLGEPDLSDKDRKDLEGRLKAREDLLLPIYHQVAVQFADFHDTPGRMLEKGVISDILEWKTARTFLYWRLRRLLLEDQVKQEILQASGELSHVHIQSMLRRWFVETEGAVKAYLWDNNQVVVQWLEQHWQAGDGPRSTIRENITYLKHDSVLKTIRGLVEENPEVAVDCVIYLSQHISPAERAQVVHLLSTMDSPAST

Structure (SMILES)	IC50 [1]	MIC ([2]; ATCC90028, 48 h)	MIC ([3]; ATCC6258, 48 h)	MIC ([4]; ATCC22019, 48 h)	IC90 ([5]; Table 4a)	IC90 ([5]; Table 4b)	IC90 ([6]; Table 4a)	IC90 ([6]; Table 4b)	IC90 ([7]; Table 4a)	IC90 ([7]; Table 4b)	IC90 [8]	Concentration at 90% Inhibition Fm ([8]; Table 4b, 48 hours)	IC90 [9, 13]	IC90 [9, 14]	IC90 ([10]; 48 h, Table 4a)	IC90 ([10]; 48 h, Table 4b)	IC90 ([11]; Table 4a)	IC90 ([11]; Table 4b)	IC90 ([12]; 48 h, Table 4a)	IC90 ([12]; 48 h, Table 4b)	also measured
COc1ccc(F)cc1[C@H](Cn1c(=O)n(C(C)(C)C(=O)N2CCCCC2)c(=O)c2c(C)c(-n3cccn3)sc21)OC1CCOCC1 [Compound I-8, (R)-1-(2-(5-fluoro-2-methoxyphenyl)-2-((tetrahydro-2H-pyran-4-yl)oxy)ethyl)-5-methyl-3-(2-methyl-1-oxo-1-(piperidin-1-yl)propan-2-yl)-6-(1H-pyrazol-1-yl)thieno[2,3-d]pyrimidine-2,4(1H,3H)-dione]	0.01 to 0.04 µM	0.25 to 1 mg/L (≈ 0.382 to 1.53 µM)	0.25 to 1 mg/L (≈ 0.382 to 1.53 µM)	0.25 to 1 mg/L (≈ 0.382 to 1.53 µM)	2 mg/L (≈ 3.06 µM)	2 mg/L (≈ 3.06 µM)	2 mg/L (≈ 3.06 µM)	2 mg/L (≈ 3.06 µM)	10 mg/L (≈ 15.3 µM)	2 mg/L (≈ 3.06 µM)	0.08 mg/L (≈ 0.122 µM)	AA (“AA” provided a compound concentration of 0.08 ppm at 90% inhibition of fungal pathogens)	2 mg/L (≈ 3.06 µM)	2 mg/L (≈ 3.06 µM)	> 50 mg/L	> 50 mg/L	> 50 mg/L	10 mg/L (≈ 15.3 µM)	> 50 mg/L	> 50 mg/L	
COc1ccccc1[C@H](Cn1c(=O)n(C(C)(C)C(=O)NC(C)C)c(=O)c2c(C)c(-n3cccn3)sc21)OC1CCOCC1 [Compound I-11, (R)—N-isopropyl-2-(1-(2-(2-methoxyphenyl)-2-((tetrahydro-2H-pyran-4-yl)oxy)ethyl)-5-methyl-2,4-dioxo-6-(1H-pyrazol-1-yl)-1,4-dihydrothieno[2,3-d]pyrimidin-3(2H)-yl)-2-methylpropanamide]	0.01 to 0.04 µM	> 4.1 mg/L	> 4.1 mg/L	> 4.1 mg/L	> 50 mg/L	10 mg/L (≈ 16.4 µM)	> 50 mg/L	10 mg/L (≈ 16.4 µM)	> 50 mg/L	10 mg/L (≈ 16.4 µM)	2 mg/L (≈ 3.28 µM)	B (“B” provided a compound concentration of 2.0 ppm at 90% inhibition of fungal pathogens)	> 50 mg/L	10 mg/L (≈ 16.4 µM)	> 50 mg/L	> 50 mg/L	> 50 mg/L	> 50 mg/L	> 50 mg/L	> 50 mg/L	
COc1ccccc1[C@H](Cn1c(=O)n(C(C)(C)C(=O)N2CCCC2)c(=O)c2c(C)c(-n3cccn3)sc21)OC1CCOCC1 [Compound I-12, (R)-1-(2-(2-methoxyphenyl)-2-((tetrahydro-2H-pyran-4-yl)oxy)ethyl)-5-methyl-3-(2-methyl-1-oxo-1-(pyrrolidin-1-yl)propan-2-yl)-6-(1H-pyrazol-1-yl)thieno[2,3-d]pyrimidine-2,4(1H,3H)-dione]	0.003 to 0.01 µM				> 50 mg/L	10 mg/L (≈ 16.1 µM)	10 mg/L (≈ 16.1 µM)	2 mg/L (≈ 3.22 µM)	> 50 mg/L	10 mg/L (≈ 16.1 µM)							2 mg/L (≈ 3.22 µM)	2 mg/L (≈ 3.22 µM)			MIC ([2]; ATCC90028, 3 replicates, MIC recorded at 48 h): 2.1 to 4 mg/L (≈ 3.38 to 6.43 µM); MIC ([3]; ATCC6258, 3 replicates, MIC recorded at 48 h): 2.1 to 4 mg/L (≈ 3.38 to 6.43 µM); MIC ([4]; ATCC22019, 3 replicates, MIC recorded at 48 h): > 4.1 mg/L; IC90 ([8]; Table 4a, 48 hours): 0.4 mg/L (≈ 0.643 µM); IC90 ([8]; Table 4b, 48 hours): 0.4 mg/L (≈ 0.643 µM); IC90 ([9]; Table 4a, 48 hours, read-out: Concentration at 90% Inhibition Fv): > 50 mg/L; IC90 ([9]; Table 4b, 48 hours, read-out: Concentration at 90% Inhibition Fv): 10 mg/L (≈ 16.1 µM); IC90 ([10]; Table 4a, 48 hours): > 50 mg/L; Concentration at 90% Inhibition Pc ([10]; Table 4b, 48 hours): D (“D” provided a compound concentration of >50 ppm at 90% inhibition of fungal pathogens); Concentration at 90% Inhibition St ([12]; Table 4b, 48 hours): D (“D” provided a compound concentration of >50 ppm at 90% inhibition of fungal pathogens); IC90 ([12]; Table 4a, 48 hours): > 50 mg/L
